According to patent EP0343258B1, “AGENT FOR PROPHYLAXIS AND TREATMENT OF VIRALLY INFECTED DISEASES” (MITSUI TOATSU CHEMICALS, Inc., priority 1987, dated 1989):
Non-standard residues stand in square brackets, D forms with d. Residues, ends and D or L forms follow the SMILES beside them. pGlu = O=C1CC[C@@H](C(=O)O)N1

Assays:
[1] = Toxicity test, repeated subcutaneous administration to mice; assay type: in vivo, ddy male mice
Description: (§1) Thus, the medicament of the present invention is a safe medicament of extremely low toxicity and can be administered for a long period of time.

[2] = Toxicity test, repeated subcutaneous administration to rats; assay type: in vivo, wister rats; conditions: 30 mg/kg subcutaneously for consecutive 21 days
Description: as §1

REO virus type II = experiment: Jerne plaque assay (antibody-forming cells against SRBC) in REO virus-infected new-born NC mice; assay type: in vivo; conditions: 10⁵ PFU REO virus; MDP 20 µg/mouse with Freund incomplete adjuvant, given with SRBC 2 weeks after infection; measured 4 days later
Protocol: Two weeks after the infection of 10⁵ PFU REO virus, sheep red blood cells (referred to hereinafter simply as SRBC) was intraperitoneally administered and 4 days after the administration, the number of hemolysis plaques was measured by way of Jerne plaque assay as a production amount of antibody-forming cells against SRBC. The number of hemolysis plaques was 15±2 per 10⁶ spleen cells in a group not infected with REO virus, while that was 2.8±1.6 in an infected group, thus showing a remarkable immunity inhibitory state. In compliance with this, atrophy of thymus and decrease in the number of thymic cortex lymphocytes were observed.
In a group to which muramyl dipeptide was administered in an amount of 20 µg/mouse together with Freund incomplete adjuvant, the number of hemolysis plaques was 11±2.
Next, recovery of the immune function by immunity-enhancing substance was examined, using new-born mice infected with REO virus type II. Two weeks after the infection of the mice with the virus, sheep red blood cells were administered to the mice, and 4 days after the administration, Jerne plaque assay was carried out to measure the number of hemolysis plaques. […]
Mice infected with virus was immunized at the same time with SRBC and an immunostimulant, and 4 days after the immunization, the number of hemolysis plaques was measured by Jerne plaque assay. […]

Compound | toxicity ([1]; 50 mg/kg and 100mg/kg subcutaneously for consecutive 14 days) | abnormal symptom by external check ([1]; 100 mg/kg subcutaneously every day for consecutive 14 days) | abnormal symptom in external behavior observation, biochemical diagnosis of sera and pathological anatomy [2] | toxicity [2] | PFC/10⁶ spleen cells (REO virus type II) [PFC/10⁶ spleen cells]
C[C@H](NC(=O)[C@@H]1CCC(=O)N1)C(=O)N[C@@H](CCCCN)C(=O)N[C@@H](CO)C(=O)N[C@@H](CCC(N)=O)C(=O)NCC(=O)NCC(=O)N[C@@H](CO)C(=O)N[C@@H](CC(N)=O)C(=O)O [FTS, pGlu-Ala-Lys-Ser-Gln-Gly-Gly-Ser-Asn] ([pGlu]AKSQGGSN-OH) | No toxicity was observed | no abnormal symptom was found | no abnormal symptom was found | No toxicity was observed | –
CC(=O)N[C@H]1C(O)O[C@H](CO)[C@@H](O)[C@@H]1O[C@H](C)C(=O)N[C@@H](C)C(=O)N[C@H](CCC(=O)O)C(N)=O (some centres unmarked) [MDP, muramyl dipeptide] | – | – | – | – | 11±2
